The record followed here is patent US20130165428A1, “XANTHINE DERIVATIVES, THE PREPARATION THEREOF AND THEIR USE AS PHARMACEUTICAL COMPOSITIONS” (Boehringer Ingelheim Pharma GmbH & Co. KG, priority 2001, published 2013).

Structures can show the parent of a compound that is named as a salt. Where two headings read alike, the source gives them in different places.

One series deals with T1, DPP-IV (Homo sapiens, UniProt P27487).
T1 construct: an extract of the human colon carcinoma cell line Caco-2 is used as the DPP IV source; host or cells: Caco-2 (differentiated to induce DPP-IV expression), Nonidet-P40 solubilised extract
T1 sequence (P27487 whole entry): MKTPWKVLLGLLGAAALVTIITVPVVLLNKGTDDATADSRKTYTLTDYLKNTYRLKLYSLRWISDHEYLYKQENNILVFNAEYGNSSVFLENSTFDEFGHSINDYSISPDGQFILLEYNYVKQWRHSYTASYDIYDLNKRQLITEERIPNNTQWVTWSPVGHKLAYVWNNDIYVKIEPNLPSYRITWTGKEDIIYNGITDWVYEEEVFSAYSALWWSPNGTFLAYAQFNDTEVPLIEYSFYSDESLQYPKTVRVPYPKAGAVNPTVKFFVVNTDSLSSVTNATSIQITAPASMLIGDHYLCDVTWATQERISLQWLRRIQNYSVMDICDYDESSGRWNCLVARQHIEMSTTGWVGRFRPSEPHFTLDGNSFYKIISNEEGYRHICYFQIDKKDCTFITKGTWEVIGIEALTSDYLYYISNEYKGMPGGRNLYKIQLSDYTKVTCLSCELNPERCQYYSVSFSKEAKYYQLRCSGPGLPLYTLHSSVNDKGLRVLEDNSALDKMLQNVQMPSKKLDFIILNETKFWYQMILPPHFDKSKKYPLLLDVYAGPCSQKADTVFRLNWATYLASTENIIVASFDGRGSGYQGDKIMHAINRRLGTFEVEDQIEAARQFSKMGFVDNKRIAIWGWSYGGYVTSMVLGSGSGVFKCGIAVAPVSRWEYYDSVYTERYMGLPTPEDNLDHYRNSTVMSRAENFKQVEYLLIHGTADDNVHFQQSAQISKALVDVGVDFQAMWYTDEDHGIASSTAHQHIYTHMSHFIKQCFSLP
Nature of the series: DPP-IV assay with extract of Caco-2 cells as DPP IV source. Format: biochemical. The note with it: read-out: DPP IV inhibition IC50. The method, then: This cell line was obtained from the American Type Culture Collection (ATCC HTB 37). […] The cell extract was obtained from cells solubilised in a buffer (10 mM Tris HCl, 0.15 M NaCl, 0.04 t.i.u. aprotinin, 0.5% Nonidet-P40, pH 8.0) by centrifugation at 35,000 g for 30 minutes at 4° C. (to remove cell debris).
The DPP-IV assay was carried out as follows:
50 μl of substrate solution (AFC; AFC is amido-4-trifluoromethylcoumarin), final concentration 100 μM, were placed in black microtitre plates. 20 μl of assay buffer (final concentrations 50 mM Tris HCl pH 7.8, 50 mM NaCl, 1% DMSO) was pipetted in. The reaction was started by the addition of 30 μl of solubilised Caco-2 protein (final concentration 0.14 μg of protein per well). The test substances under investigation were typically added prediluted to 20 μl, while the volume of assay buffer was then reduced accordingly. The reaction was carried out at ambient temperature, the incubation period was 60 minutes. […] Dummy values (corresponding to 0% activity) were obtained in mixtures with no Caco-2 protein (volume replaced by assay buffer), control values (corresponding to 100% activity) were obtained in mixtures without any added substance.

Setting [1] is: extract of human colon carcinoma cell line Caco-2 as DPP IV source, substrate AFC 100 μM, 60 minutes, ambient temperature.

In the case of `CC(C)=CCn1c(N(C)CC(N)C(=O)N(C)C)nc2c1c(=O)n(C)c(=O)n2C` (centres unmarked) [2(131), 1,3-dimethyl-7-(3-methyl-2-buten-1-yl)-8-[N-(2-amino-3-dimethylamino-3-oxo-propyl)-N-methyl-amino]-xanthine×trifluoroacetic acid], the IC50 on DPP-IV came to 127 nM.

Consider `CC(C)=CCn1c(N2CCCC(N)C2)nc2c1c(=O)n(CC(=O)c1cccc(OCC#N)c1)c(=O)n2C` (centres unmarked) [2(88), 1-[2-(3-cyanomethoxy-phenyl)-2-oxo-ethyl]-3-methyl-7-(3-methyl-2-buten-1-yl)-8-(3-amino-piperidin-1-yl)-xanthine], for which the IC50 on DPP-IV (setting [1]) came to 6 nM.

For the molecule `CC(C)=CCn1c(N2CCCC(N)C2)nc2c1c(=O)n(C)c(=O)n2CCc1ccc(F)cc1` (centres unmarked) [2(77), 1-methyl-3-[2-(4-fluoro-phenyl)-ethyl]-7-(3-methyl-2-buten-1-yl)-8-(3-amino-piperidin-1-yl)-xanthine], at DPP-IV (setting [1]), the IC50 stood at 22 nM.

Take `CC(C)=CCn1c(N2CCCC(N)C2)nc2c1c(=O)[nH]c(=O)n2C` (centres unmarked) [1(15), 3-methyl-7-(3-methyl-2-buten-1-yl)-8-(3-amino-piperidin-1-yl)-xanthine]: on DPP-IV (setting [1]), the IC50 was 624 nM.

For the molecule `C#CCOc1cccc(C(=O)Cn2c(=O)c3c(nc(N4CCCC(N)C4)n3CC=C(C)C)n(C)c2=O)c1` (centres unmarked) [2(85), 1-{2-oxo-2-[3-(2-propyn-1-yloxy)-phenyl]-ethyl}-3-methyl-7-(3-methyl-2-buten-1-yl)-8-(3-amino-piperidin-1-yl)-xanthine], the IC50 at DPP-IV (setting [1]) was determined as 17 nM.

In the case of `CC(C)=CCn1c(N2CCCNCC2)nc2c1c(=O)n(CCc1ccccc1)c(=O)n2C` [1(97), 1-(2-phenyl-ethyl)-3-methyl-7-(3-methyl-2-buten-1-yl)-8-(homopiperazin-1-yl)-xanthine], the IC50 at DPP-IV (setting [1]) was 212 nM.

Take `Cn1c(=O)c2c(nc(N3CCCC(N)C3)n2Cc2ccccc2)n(CCc2ccccc2)c1=O` (centres unmarked) [1(70), 1-methyl-3-(2-phenyl-ethyl)-7-benzyl-8-(3-amino-piperidin-1-yl)-xanthine]: the concentration for half-maximal inhibition (IC50) on DPP-IV (setting [1]) worked out at 32 nM.

`CCn1c(=O)c2c(nc(N3CCCC(N)C3)n2CC=C(C)C)n(C)c1=O` (centres unmarked) [1(16), 1-ethyl-3-methyl-7-(3-methyl-2-buten-1-yl)-8-(3-amino-piperidin-1-yl)-xanthine]: the IC50 on DPP-IV (setting [1]) was 78 nM.

`CC(C)=CCn1c(N2CCCC(N)C2)nc2c1c(=O)n(CCc1cccc(C)c1)c(=O)n2C` (centres unmarked) [1(55), 1-[2-(3-methyl-phenyl)-ethyl]-3-methyl-7-(3-methyl-2-buten-1-yl)-8-(3-amino-piperidin-1-yl)-xanthine]: the IC50 at DPP-IV (setting [1]) was 142 nM.

As to `CC(C)=CCn1c(N2CCCC(N)C2)nc2c1c(=O)n(C(C)C)c(=O)n2C` (centres unmarked) [1(19), 1-(2-propyl)-3-methyl-7-(3-methyl-2-buten-1-yl)-8-(3-amino-piperidin-1-yl)-xanthine], the half-maximal inhibitory concentration (IC50) on DPP-IV (setting [1]) came out at 2770 nM.

As for `CC(C)=CCn1c(N[C@@H]2CCCC[C@@H]2N)nc2c1c(=O)n(C)c(=O)n2C` (relative stereo) [1(6), 1,3-dimethyl-7-(3-methyl-2-buten-1-yl)-8-[(cis-2-amino-cyclohexyl)amino]-xanthine], the IC50 on DPP-IV (setting [1]) worked out at 230 nM.

Regarding `C=CCn1c(=O)c2c(nc(N3CCCC(N)C3)n2CC=C(C)C)n(C)c1=O` (centres unmarked) [1(21), 1-(2-propen-1-yl)-3-methyl-7-(3-methyl-2-buten-1-yl)-8-(3-amino-piperidin-1-yl)-xanthine], the IC50 at DPP-IV (setting [1]) was found to be 124 nM.

Turning to `CC(C)=CCn1c(N2CCCC(N)C2)nc2c1c(=O)n(CC(=O)c1ccccc1N)c(=O)n2C` (centres unmarked) [2(136), 1-[2-(2-amino-phenyl)-2-oxo-ethyl]-3-methyl-7-(3-methyl-2-buten-1-yl)-8-(3-amino-piperidin-1-yl)-xanthine], the IC50 on DPP-IV (setting [1]) is 3 nM.

Take `CC(C)=CCn1c(N2CCCC(N)C2)nc2c1c(=O)n(Cc1ccccn1)c(=O)n2C` (centres unmarked) [2(113), 1-[(pyridin-2-yl)methyl]-3-methyl-7-(3-methyl-2-buten-1-yl)-8-(3-amino-piperidin-1-yl)-xanthine]: the IC50 on DPP-IV (setting [1]) was found to be 20 nM.

As for `CCn1c(=O)n(C)c(=O)c2c1nc(N1CCCC(N)C1)n2Cc1ccccc1` (centres unmarked) [1(34), 1-methyl-3-ethyl-7-benzyl-8-(3-amino-piperidin-1-yl)-xanthine], the IC50 at DPP-IV (setting [1]) came to 205 nM.

Turning to `CC(C)=CCn1c(N2CCCC(N)C2)nc2c1c(=O)n(CCN(C)C)c(=O)n2C` (centres unmarked) [1(30), 1-[2-(dimethylamino)ethyl]-3-methyl-7-(3-methyl-2-buten-1-yl)-8-(3-amino-piperidin-1-yl)-xanthine], the IC50 at DPP-IV (setting [1]) turned out to be 2050 nM.

As for `Cn1c(=O)c2c(nc(N3CCCC(N)C3)n2Cc2ccccc2C#N)n(C)c1=O` (centres unmarked) [1(121), 1,3-dimethyl-7-(2-cyano-benzyl)-8-(3-amino-piperidin-1-yl)-xanthine], the IC50 on DPP-IV (setting [1]) was determined as 10 nM.

`CC(C)=CCn1c(N2CCC(N)C2)nc2c1c(=O)n(C)c(=O)n2C` (centres unmarked) [Example 1(1), 1,3-dimethyl-7-(3-methyl-2-buten-1-yl)-8-(3-amino-pyrrolidin-1-yl)-xanthine] registered a melting point of 119 °C.

`CC(C)=CCn1c(N2CCCC(N)C2)nc2c1c(=O)n(CCc1ccc(C)cc1)c(=O)n2C` (centres unmarked) [Example 1(100), 1-[2-(4-methyl-phenyl)-ethyl]-3-methyl-7-(3-methyl-2-buten-1-yl)-8-(3-amino-piperidin-1-yl)-xanthine] displayed a melting point of 129 to 130.2 °C.

In the case of `CC(C)=CCn1c(NC[C@@H](C)N)nc2c1c(=O)n(C)c(=O)n2C` [Example 1(135), 1,3-dimethyl-7-(3-methyl-2-buten-1-yl)-8-((R)-2-amino-propylamino)-xanthine], the melting point lay within 141 to 144 °C.

On to `CC(C)=CCn1c(N2CCCC(N)C2)nc2c1c(=O)n(CCn1cccc1)c(=O)n2C` (centres unmarked) [Example 1(61), 1-[2-(pyrrol-1-yl)-ethyl]-3-methyl-7-(3-methyl-2-buten-1-yl)-8-(3-amino-piperidin-1-yl)-xanthine], for which the melting point fell in the range of 136 to 138.6 °C.

The molecule `CC(C)=CCn1c(N2CCCC(N)C2)nc2c1c(=O)n(C)c(=O)n2C(C)C` (centres unmarked) [Example 2(60), 1-methyl-3-isopropyl-7-(3-methyl-2-buten-1-yl)-8-(3-amino-piperidin-1-yl)-xanthine] yielded a melting point of 115 to 117 °C.

Regarding `CC(C)=CCn1c(N2CCCC(N)C2)nc2c1c(=O)n(Cc1cccc3ccccc13)c(=O)n2C` (centres unmarked) [2(127), 1-[(1-naphthyl)methyl]-3-methyl-7-(3-methyl-2-buten-1-yl)-8-(3-amino-piperidin-1-yl)-xanthine], the IC50 at DPP-IV (setting [1]) amounted to 22 nM.

`CC(C)=CCn1c(NCC(C)(C)N)nc2c1c(=O)n(C)c(=O)n2C` [Example 1(134), 1,3-dimethyl-7-(3-methyl-2-buten-1-yl)-8-(2-amino-2-methyl-propylamino)-xanthine] registered a melting point of 140.5 to 143 °C.

Take `CC(C)=CCn1c(N2CCCC(N)C2)nc2c1c(=O)n(CCO)c(=O)n2C` (centres unmarked) [1(27), 1-(2-hydroxyethyl)-3-methyl-7-(3-methyl-2-buten-1-yl)-8-(3-amino-piperidin-1-yl)-xanthine]: the 50% inhibitory concentration (IC50) on DPP-IV (setting [1]) was determined as 125 nM.

In turn, `COc1cccc(CCn2c(=O)c3c(nc(N4CCCC(N)C4)n3CC=C(C)C)n(C)c2=O)c1` (centres unmarked) [Example 1(86), 1-[2-(3-methoxy-phenyl)-ethyl]-3-methyl-7-(3-methyl-2-buten-1-yl)-8-(3-amino-piperidin-1-yl)-xanthine] yielded a melting point of 118.5 to 119.5 °C.

`CC(C)=CCn1c(N2CCCC(N)(C(=O)N3CCCC3)C2)nc2c1c(=O)n(C)c(=O)n2C` (centres unmarked) (as salt: sodium) [Example 1(139), 1,3-dimethyl-7-(3-methyl-2-buten-1-yl)-8-[3-amino-3-(pyrrolidin-1-ylcarbonyl)-piperidin-1-yl]-xanthine]: the melting point was 159 to 160 °C.

For `CC(C)=CCn1c(N2CCCC(N)C2)nc2c1c(=O)n(CCc1cccc(Br)c1)c(=O)n2C` (centres unmarked) [Example 1(87), 1-[2-(3-bromo-phenyl)-ethyl]-3-methyl-7-(3-methyl-2-buten-1-yl)-8-(3-amino-piperidin-1-yl)-xanthine], the melting point lay in the range of 116.5 to 117.5 °C.

For the molecule `C#CCCn1c(=O)c2c(nc(N3CCCC(N)C3)n2CC=C(C)C)n(C)c1=O` (centres unmarked) [Example 1(65), 1-(3-butyn-1-yl)-3-methyl-7-(3-methyl-2-buten-1-yl)-8-(3-amino-piperidin-1-yl)-xanthine], the melting point lay in the range of 150 to 152 °C.

`CC(C)=CCn1c(N2CCCC(N)C2)nc2c1c(=O)n(CCc1ccc(Cl)cc1Cl)c(=O)n2C` (centres unmarked) [Example 1(37), 1-[2-(2,4-dichloro-phenyl)-ethyl]-3-methyl-7-(3-methyl-2-buten-1-yl)-8-(3-amino-piperidin-1-yl)-xanthine] had a melting point of 130 to 132 °C.

Take `COC(=O)Cn1c(=O)c2c(nc(N3CCC[C@H](N)C3)n2CC=C(C)C)n(C)c1=O` [Example 2(19), 1-[(methoxycarbonyl)-methyl]-3-methyl-7-(3-methyl-2-buten-1-yl)-8-((S)-3-amino-piperidin-1-yl)-xanthine]: the melting point was in the range of 102 to 105 °C.

Consider `Cn1c(=O)c2c(nc(N3CCC(N)C3)n2Cc2ccccc2)n(C)c1=O` (centres unmarked) [Example 1, 1,3-dimethyl-7-benzyl-8-(3-amino-pyrrolidin-1-yl)-xanthine], for which the melting point was 150 °C.
